3 compounds from US11912697B1, “1,3-benzothiazol-2-yl-N′-[(pyridine-3-carbonyl)oxy]ethanimidamide as an antitumor and antimicrobial compound” (King Faisal University, priority 2023, dated 2024) can be followed below.

A word on the IC50: it is the concentration that inhibits the measured activity by half. Read a low IC50 as higher potency. Usually inhibition stands for how much of the control response was suppressed. Higher therefore signals strong suppression. By melting point is commonly meant the temperature of the solid-liquid transition.

The subject of data set [1] is Bacillus cereus, Staphylococcus aureus, Pseudomonas aeruginosa, Escherichia coli, Aspergillus flavus, Chrysosporium keratinophilum. The data set can be described thus: Agar plate disc-diffusion antimicrobial screen. The following applies: 10 μL of 10 mg/mL in DMSO per disc, result in words only. The class given is cell-based. The procedure:
The agar plate disc-diffusion method was applied. Sterilized filter papers (6 mm in diameter) were wetted with 10 μL of a solution of each compound to be tested, containing 10 mg/mL in DMSO, and the discs were allowed to air dry. The discs were then placed onto the surface of agar plates (nutrient agar for bacteria and Sabouraud's dextrose agar for fungi) and seeded with the test organism. Each plate contained 15 mL of the agar medium, previously seeded with 0.2 mL of the broth culture of each organism pre-grown for 18 h. The plates were incubated at 37° C. for 48 h, and 72 h for fungi. The inhibition zones were measured in mm. Discs impregnated with DMSO were used as a control, and its inhibition zone was subtracted from the tested compound actual inhibition zone.
In particular, the present 1,3-benzothiazol-2-yl-N′-[(pyridine-3-carbonyl)oxy]ethanimidamide was screened against gram positive bacteria, namely Bacillus cereus and Staphylococcus aureus, and gram-negative bacterial strains, namely Pseudomonas aeruginosa and Escherichia coli, while the antifungal activity was screened against Aspergillus flavus and Chrysosporium keratinophilum.
(In general: A growth-free zone around the sample is the usual read-out of agar diffusion tests.)

Data set [2] concerns human prostate cancer cells (PC3). Put plainly: Cytotoxicity by SRB assay, PC3 cells. The data set is classed as cell-based. The following applies: PC-3 cells; for IC50: mean ± SD. The procedure:
(§1) The human prostate cancer cells (PC3) and human osteosarcoma cells (MG-63) were obtained from Nawah Scientific Inc. (Mokatam, Cairo, Egypt) and cultured in DMEM (Dulbecco's modified eagle's medium), Gibco, USA, supplemented with fetal bovine serum (FBS) at a concentration of 10% and 100 U/mL of penicillin and streptomycin (PS). The Cells were incubated at 37° C. in a humidified environment that contained 5% CO2.
(§2) Cells were seeded in 96-well plates as aliquots of 100 μL cell suspension and incubated in a complete media for 24 h. Afterward, cells were treated with N′-[(2-chlorobenzoyl)oxy]-1,3-benzothiazole-2-carboximidamide at diverse concentrations ranging from 0.01 μM to 100 μM for 72 h. Then, cells were fixed at 4° C. for one hour with 150 μL of 10% trichloroacetic acid (TCA). After washing the cells five times with distilled water, 70 μL of sulforhodamine (SRB) solution (0.4% w/v) was added and incubated for 10 min at room temperature in a dark place. Cells were washed with 1% acetic acid three times and allowed to air-dry. Then, 150 μL of Tris pH 10.5 (10 mM) was added, and the absorbance was measured at 540 nm using a BMG LABTECH®-FLUOstar Omega microplate reader (Ortenberg, Germany). Half maximal inhibitory concentrations (IC50) values were calculated for each experiment using GraphPad Prism 6 software. IC50 values were reported as mean […] SD.
(§3) The inhibition was calculated using the following equation: Inhibition %=100−Average Viability
Background: Sulforhodamine B stains cellular protein and so reports cell mass.

Data set [3] deals with human osteosarcoma cells (MG-63). The data set can be described thus: Cytotoxicity by SRB assay, MG-63 cells. The class given is cell-based. The following applies: for IC50: mean ± SD. The procedure: as §1, §2, §3

On to `NC(=NOC(=O)c1ccccc1Cl)c1nc2ccccc2s1` [N′-[(2-chlorobenzoyl)oxy]-1,3-benzothiazole-2-carboximidamide], for which the antimicrobial activity result in data set [1] is recorded as “excellent antimicrobial activities”.
With `COc1cccc2c1C(=O)c1c(O)c3c(c(O)c1C2=O)C[C@@](O)(C(=O)CO)C[C@@H]3O[C@H]1C[C@H](N)[C@H](O)[C@H](C)O1` [DOX, Doxorubicin, reference compound], the half-maximal inhibitory concentration (IC50) in data set [2] (Homo sapiens, PC-3, 72 h) was 7.6 ± 0.45 µM; in data set [3] (Homo sapiens, MG-63, 72 h), 9.4 ± 1.1 µM.
As to `N/C(Cc1nc2ccccc2s1)=N\OC(=O)c1cccnc1` [Present Compound, 1,3-benzothiazol-2-yl-N′-[(pyridine-3-carbonyl)oxy]ethanimidamide], the melting point is 150 to 152 °C. Moreover, in data set [1], the antimicrobial activity entry is reported as “high levels of antimicrobial activity”. Besides, the “Prostate Cancer (PC-3) Inhibition %” value in data set [2] (10 μg/ml, 72 h) came out at 96.21%. In addition, the inhibition at 10 µg/mL in data set [2] (Homo sapiens, PC-3, 72 h, 10 μg/ml) stood at 96%. Further, testing at 100 µg/mL in data set [2] (Homo sapiens, PC-3, 72 h, 100 μg/ml) gave an inhibition of 97%. In data set [2] (Homo sapiens, PC-3, 72 h), the concentration for half-maximal inhibition (IC50) was < 4 µM. It took 2.71 ± 0.03 µM to reach half-maximal inhibition in data set [2] (72 h) (IC50). Further, the IC50 in data set [3] (72 h) was found to be 3.59 ± 0.2 µM. In data set [3] (Homo sapiens, 10 μg/ml, 72 h), this compound registered an inhibition at 10 µg/mL of 91.2%. In data set [3] (Homo sapiens, 100 μg/ml, 72 h), this compound showed an inhibition at 100 µg/mL of 92.1%. For the same compound, the IC50 in data set [3] (Homo sapiens, MG-63, 72 h) is < 4 µM.
